Laboratory results: patent US20090280106A1, “Pituitary adenylate cyclase acivating peptide (pacap) receptor (vpac2) agonists and their pharmacological methods of use” (Bayer Pharmaceuticals Corporation, priority 2005, published 2009)

What was measured:
DPPIV [1] = molecular target: T1, DPPIV (Homo sapiens, UniProt P27487); conditions: longer time points
Experimental: The formulations described in Example 4 are placed in constant stability chamber. Peptides are also analyzed for stability to degradation in solutions of DPPIV and in plasma. Samples are removed periodically for analysis by capillary electrophoresis, mass spectrometry, Edman degradation, ELISA, and assays of peptide activity, which are sensitive methods to detect degradation of peptide. The area of various peaks is summed and the area for peak of the parent peptide is divided by the total peak area. The quotient is the % purity. Since there are impurities present in the fresh peptide, the purity change is normalized by dividing the purity at different time point by the initial purity. For stability to DPPIV and plasma, peptides at 20 pmol/μl were incubated at 37° C. in the presence of 300 pM DPPIV in 100 mM HEPES, pH 7.4. At various timepoints, the reaction (2 μl aliquot) is terminated by addition of 1 μM DPPIV inhibitor and freezing. For MALDI mass spectrometric analysis, T=0 hr, 1 hr, 5 hr, and 24 hr timepoints are evaluated. The results are plotted as percent intact peptide or peptide derivative as compared to degradation products.

DPPIV [2] = molecular target: T1, DPPIV; conditions: cited from earlier work

T1 sequence (P27487 whole entry, species assumed): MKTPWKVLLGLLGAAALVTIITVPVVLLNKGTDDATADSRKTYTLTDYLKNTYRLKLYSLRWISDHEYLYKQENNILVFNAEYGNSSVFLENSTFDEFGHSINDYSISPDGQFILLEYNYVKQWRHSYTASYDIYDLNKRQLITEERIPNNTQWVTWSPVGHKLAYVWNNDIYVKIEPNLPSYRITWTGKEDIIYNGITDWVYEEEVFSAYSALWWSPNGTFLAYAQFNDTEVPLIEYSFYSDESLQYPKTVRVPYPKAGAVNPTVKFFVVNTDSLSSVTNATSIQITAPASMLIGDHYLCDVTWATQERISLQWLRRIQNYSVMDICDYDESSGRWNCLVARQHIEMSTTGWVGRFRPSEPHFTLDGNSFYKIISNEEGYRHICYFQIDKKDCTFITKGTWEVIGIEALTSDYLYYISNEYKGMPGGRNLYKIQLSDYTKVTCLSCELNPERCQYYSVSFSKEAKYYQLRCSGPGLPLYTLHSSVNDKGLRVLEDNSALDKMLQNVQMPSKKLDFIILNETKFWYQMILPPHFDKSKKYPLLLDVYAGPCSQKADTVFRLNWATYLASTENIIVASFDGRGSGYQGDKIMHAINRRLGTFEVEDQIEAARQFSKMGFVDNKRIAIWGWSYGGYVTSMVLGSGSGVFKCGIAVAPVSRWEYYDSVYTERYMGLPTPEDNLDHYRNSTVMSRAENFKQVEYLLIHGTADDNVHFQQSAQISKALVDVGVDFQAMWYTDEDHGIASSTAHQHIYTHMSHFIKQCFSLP

## CC[C@H](C)[C@H](NC(=O)CNC(=O)[C@H](CC(=O)O)NC(=O)[C@H](CO)NC(=O)[C@@H](N)Cc1cnc[nH]1)C(=O)N[C@@H](Cc1ccccc1)C(=O)N[C@H](C(=O)N[C@@H](CC(=O)O)C(=O)N[C@@H](CO)C(=O)N[C@@H](Cc1ccc(O)cc1)C(=O)N[C@@H](CO)C(=O)N[C@@H](CCCNC(=N)N)C(=O)N[C@@H](Cc1ccc(O)cc1)C(=O)N[C@@H](CCCNC(=N)N)C(=O)N[C@@H](CCCCN)C(=O)N[C@@H](CCC(N)=O)C(=O)N[C@@H](CCSC)C(=O)N[C@@H](C)C(=O)N[C@H](C(=O)N[C@@H](CCCCN)C(=O)N[C@@H](CCCCN)C(=O)N[C@@H](Cc1ccc(O)cc1)C(=O)N[C@@H](CC(C)C)C(=O)N[C@@H](C)C(=O)N[C@@H](C)C(=O)N[C@H](C(=O)N[C@@H](CC(C)C)C(N)=O)C(C)C)C(C)C)[C@@H](C)O [PACAP27]
DPPIV [1]
  cleavage by DPPIV: cleaved at longer time points
DPPIV [2]
  cleavage by DPPIV as reported (Zhu, et al., J. Biol. Chem. 278: 22418-22423, 2003): resistant to cleavage

## CC[C@H](C)[C@H](NC(=O)[C@H](CO)NC(=O)[C@H](CC(N)=O)NC(=O)[C@H](CC(C)C)NC(=O)[C@H](Cc1ccc(O)cc1)NC(=O)[C@H](CCCCN)NC(=O)[C@H](CCCCN)NC(=O)[C@@H](NC(=O)[C@H](C)NC(=O)[C@H](CCSC)NC(=O)[C@H](CCC(N)=O)NC(=O)[C@H](CCCCN)NC(=O)[C@H](CCCN=C(N)N)NC(=O)[C@H](CC(C)C)NC(=O)[C@H](CCCN=C(N)N)NC(=O)[C@@H](NC(=O)[C@H](Cc1ccc(O)cc1)NC(=O)[C@H](CC(N)=O)NC(=O)[C@H](CC(=O)O)NC(=O)[C@@H](NC(=O)[C@H](Cc1ccccc1)NC(=O)[C@@H](NC(=O)[C@H](C)NC(=O)[C@H](CC(=O)O)NC(=O)[C@H](CO)NC(=O)[C@@H](N)Cc1c[nH]cn1)C(C)C)[C@@H](C)O)[C@@H](C)O)C(C)C)C(=O)N[C@@H](CC(C)C)C(=O)N[C@@H](CC(N)=O)C(N)=O [VIP]
DPPIV [1]
  cleavage by DPPIV: cleaved at longer time points
DPPIV [2]
  cleavage by DPPIV as reported (Zhu, et al., J. Biol. Chem. 278: 22418-22423, 2003): resistant to cleavage
